Data published in PubChem BioAssay AID493083 (Broad Institute, 2011).
Calls of active or inactive are those of the source.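 How the source made its calls: active means compounds lowering signal whose fitted AC50 is at most ten times the top tested dose; inconclusive means flat fit with moderate inhibition, or poor curve fit; inactive means the rest.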

These compounds were tested on NIH3T3 R4 HSF-1 GFP reporter, heat shock, 48 h (assay: GFP reporter loss versus dox-driven RFP – NIH3T3 R4 cells, cherry-pick, set 3, dose response (AID 493083)).
`CCN(c1ccccc1)S(=O)(=O)c1cnc[nH]1` was tested, and the AC50 was > 19.5 µM (inactive). In the case of `O=C(CCl)Nc1cc(SCC(O)CO)cc([N+](=O)[O-])c1` (configuration not stated), the AC50 is reported as 5.73 µM. In the case of `O=S(=O)(C/C(=C/CO)S(=O)(=O)c1ccccc1)c1ccccc1`, the AC50 is reported as 5.86 µM. `CCOC(=O)C1CCN(C(=O)CC(C)c2ccccc2)CC1` (configuration not stated) was tested, and the AC50 was > 10 µM (inactive). In the case of `CCc1ccc(S(=O)(=O)/N=C2\C=C(Nc3ccc(O)cc3)C(=O)c3ccccc32)cc1`, the AC50 is reported as 1.74 µM. In the case of `Nc1ncnc2c1ccn2[C@@H]1O[C@H](CO)[C@@H](O)[C@H]1O`, the AC50 is reported as 10.5 µM. For `O=C(CCl)Nc1ccc(-c2ccccc2)cc1`, the AC50 was 17.2 µM. In the case of `CN=c1scc(-c2ccco2)n1/N=C/c1ccc(O)c(O)c1`, the AC50 is reported as 5.23 µM. For `CC[C@H]1CN2CCc3cc(OC)c(OC)cc3[C@@H]2C[C@@H]1C[C@H]1NCCc2cc(OC)c(OC)cc21`, the AC50 was 0.526 µM. With `Cc1c(NC(=O)C2CC(c3ccc(F)cc3)=NO2)c(=O)n(-c2ccccc2)n1C` (configuration not stated) the AC50 was > 19.5 µM (inactive). With `COc1ccc(C[C@H]2NC[C@H](O)[C@H]2OC(C)=O)cc1` the AC50 was 0.551 µM. Compound `OCCCNc1nccc(-c2cc(Nc3cccc(Cl)c3)ncn2)n1` has an AC50 of 18.7 µM. `O=S(=O)(c1ccc2c(c1)C(=NO)c1cc(S(=O)(=O)N3CCCCC3)ccc1-2)N1CCCCC1` showed an AC50 of 2.08 µM. `C[C@H]1C[C@@H](C)C(=O)[C@@H]([C@H](O)CC2CC(=O)NC(=O)C2)C1` showed an AC50 of 0.336 µM. In the case of `Fc1ccc(-n2cc(-c3ccccc3)c3c(N4CCOCC4)ncnc32)cc1`, the AC50 is reported as > 19.5 µM (inactive). In the case of `C#CC(=O)N(c1cc(OC)ccc1OC)C(C(=O)NC1CCCC1)c1cccs1` (configuration not stated), the AC50 is reported as 5.66 µM. Compound `Cc1ccc(NC2=C/C(=N\S(=O)(=O)c3cccs3)c3ccccc3C2=O)c(C)c1` has an AC50 of 1.32 µM. Compound `CCOC(=O)c1c(C)[nH]c2c1-c1ccccc1C(=O)C2=O` has an AC50 of 1.4 µM. In the case of `CC(C)CN=C(NS(=O)(=O)c1ccccc1)C(Cl)(Cl)Cl`, the AC50 is reported as 16.1 µM. `S=C1Cc2ccccc2N1` was tested, and the AC50 was 12.4 µM. With `Cc1nn(-c2ccccc2)c(N)c1C(O)(CSc1nccn1C)C(F)(F)F` (configuration not stated) the AC50 was > 19.5 µM (inactive). For `CC(C)(C)c1ccc2c(c1)OC(C(=O)N/N=C\c1ccc[nH]1)CO2` (configuration not stated), the AC50 was 0.848 µM. `CCOC(=O)/C(=C\c1ccc([N+](=O)[O-])cc1)C(=O)c1cc(C(C)=O)c(Nc2ccccc2)s1` showed an AC50 of 11.7 µM. Compound `CC12CCC(C/C1=N\N=C1\NC(=O)/C(=C\c3ccc(Cl)cc3)S1)C2(C)C` (configuration not stated) has an AC50 of 2.4 µM. For `O=C(COC(=O)/C=C/c1ccc(C(F)(F)F)cc1)NC1CC1`, the AC50 was > 19.5 µM (inactive). With `CCOc1ccc(C(=O)COC(=O)Cc2n[nH]c(=O)c3ccccc23)cc1` the AC50 was > 19.5 µM (inactive). In the case of `COc1cccc(-c2nnc3n2N=C(C(C)(C)C)CS3)c1`, the AC50 is reported as > 19.5 µM (inactive). `CCCCS(=O)(=O)/C=C\C=C/S(=O)(=O)CCCC` gave an AC50 of 5.46 µM. With `O=C(CCl)N(c1ccccc1)C1CCCCC1` the AC50 was 5.43 µM. For `Cc1cc(C)c2nc(C(F)(F)F)c(C#N)c(N)c2c1`, the AC50 was > 19.5 µM (inactive). With `O=C(CCl)Nc1cn(-c2ccccc2)nc1-c1ccc(F)cc1` the AC50 was 4.77 µM. `Cc1ccc(S(=O)(=O)c2ncccc2[N+](=O)[O-])cc1` showed an AC50 of 5.64 µM. With `Nc1ccc2oc(C3CCCCC3)nc2c1` the AC50 was > 19.5 µM (inactive). `O=C1C=C(NCCN2CCOCC2)C(=O)c2cnccc21` was tested, and the AC50 was 5.57 µM. `Cn1c(=O)c([N+](=O)[O-])c(Cl)c2ccccc21` was tested, and the AC50 was 16.9 µM. In the case of `C=C(C)C(=O)O[C@H]1C/C(C)=C\C(=O)/C=C(\C)[C@H](O)[C@@H]2OC(=O)C(=C)[C@@H]21`, the AC50 is reported as 15.4 µM. For `COc1ccc2[nH]c(=O)c(CN(Cc3cccs3)S(=O)(=O)c3c(C)ccc4nsnc34)cc2c1`, the AC50 was > 19.5 µM (inactive). Compound `CCOC(=O)Cc1nnc2c(Nc3ccccc3F)nc3nonc3n12` has an AC50 of 12.4 µM. `NC(=O)C1CCN(CC(=O)Nc2nc(-c3ccccc3)cs2)CC1` was tested, and the AC50 was > 19.5 µM (inactive). Work on `Nc1nc(F)nc2c1ncn2[C@@H]1O[C@H](CO)[C@@H](O)[C@H]1O` yielded an AC50 of 1.61 µM. `Cc1cc([N+](=O)[O-])c2ccccc2[n+]1[O-]` gave an AC50 of 5.71 µM. Work on `O=C(Nc1ccccc1Cl)/C(Cl)=C(\Cl)S(=O)c1ccccc1` (configuration not stated) yielded an AC50 of 1.81 µM. With `NNC(=S)NC1CC2CC1C1C=CCC21` (configuration not stated) the AC50 was > 19.5 µM (inactive). Work on `COc1ccccc1-c1cc(C(F)(F)F)nc(S(=O)(=O)CCCC(=O)NCc2ccc(F)cc2)n1` yielded an AC50 of 5.18 µM. Work on `COc1cc(C2CC(c3cccs3)=NN2C(=O)CCl)ccc1OC(F)F` (configuration not stated) yielded an AC50 of 14.8 µM. For `Cc1ccc(-n2nc(C)c3cc(C(=O)O)sc32)cc1`, the AC50 was > 19.5 µM (inactive). With `CC(=O)Cn1ncc(Br)c(Br)c1=O` the AC50 was 5.62 µM.
